In US7265152B2 (ViroPharma Incorporated, priority 2002, dated 2007):
Read-outs that look alike come from different tables or passages of the source.

Legend:
[1] = system: HCV replicon (BB7 sequence) in Huh-7-Clone A cells; assay: HCV replicon assay: ELISA of NS5A protein in replicon-containing cells (Inhibition of Viral RNA Replication); format: cell-based; settings: HCV replicon assay, read-out: Replicon
Procedure, shortened: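 EC50 taken from an 8-point serially diluted dose curve, with NS5A level as read-out: fixed cells probed with primary monoclonal and HRP-conjugated secondary, TMB developed 30 min, OD 650 nm. Compound exposure 72 h in Huh-7-Clone A replicon cells (BB7 sequence).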

HCV NS5B = molecular target: T1, HCV NS5B (Hepatitis C virus genotype 1b, UniProt Q9WMX2); assay: Inhibition of viral RNA-dependent RNA polymerase (RdRp), in vitro biochemical assay; set-up: species or system HCV genotype 1b virus (BB7); settings: BB7 (genotype 1b), read-out: HCV pol-BB7 IC50
T1 construct: fusion protein, of which the carboxyl terminal 21 amino acids were removed to enhance its solubility; His tag (GSHHHHHH); made in house; host or cells: E. coli
Procedure, shortened: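 IC50 values are the concentrations that halve in vitro RNA synthesis by HCV NS5B polymerase. The enzyme was a C-terminally truncated (Δ21), His-tagged genotype 1b (BB7 consensus) protein purified from E. coli.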

[2] = Hepatitis C virus, ranges of 50% effective concentration (EC50)
[3] = HCV NS5B polymerase, values given as range classes A-D
[4] = Hepatitis C virus, ranges of EC50
[5] = HCV NS5B RdRp, reported as class symbols

SMILES	EC50 [1, 2] [nM]	IC50 (HCV NS5B; [3]) [nM]	EC50 ([1]; ranges of 50% effective concentration (EC50)) [nM]	EC50 [1, 4] [nM]	IC50 (HCV NS5B; [5]) [nM]
CNC(=O)c1c(-c2ccc(F)cc2)oc2cc(N(C)S(C)(=O)=O)c(OCc3nn(C)cc3Cl)cc12 [Example 403, 5-(4-Chloro-1-methyl-1H-pyrazol-3-ylmethoxy)-2-(4-fluoro-phenyl)-6-(methanesulfonyl-methyl-amino)-benzofuran-3-carboxylic acid methylamide]	< 1000	≤ 500	–	–	–
CNC(=O)c1c(-c2ccc(F)cc2)oc2cc(N(C)S(C)(=O)=O)c(OCCn3cccn3)cc12 [Example 404, 2-(4-Fluoro-phenyl)-6-(methanesulfonyl-methyl-amino)-5-(2-pyrazol-1-yl-ethoxy)-benzofuran-3-carboxylic acid methylamide]	< 1000	≤ 500	–	–	–
CNC(=O)c1c(-c2ccc(F)cc2)oc2cc(N(C)S(C)(=O)=O)c(OCc3ncc[nH]3)cc12 [Example 405, 2-(4-Fluoro-phenyl)-5-(1H-imidazol-2-ylmethoxy)-6-(methanesulfonyl-methyl-amino)-benzofuran-3-carboxylic acid methylamide]	< 1000	≤ 500	–	–	–
CNC(=O)c1c(-c2ccc(F)cc2)oc2cc(C3NC(=O)NC3=O)c(OC)cc12 (stereo not drawn) [Example 406, 6-(2,5-Dioxo-imidazolidin-4-yl)-2-(4-fluoro-phenyl)-5-methoxy-benzofuran-3-carboxylic acid methylamide]	< 1000	500 to 5000	–	–	–
CNC(=O)c1c(-c2ccc(F)cc2)oc2cc(-c3c(C)noc3C)c(OCc3cc(C)on3)cc12 [Example 409, 6-(3,5-Dimethyl-isoxazol-4-yl)-2-(4-fluoro-phenyl)-5-(5-methyl-isoxazol-3-ylmethoxy)-benzofuran-3-carboxylic acid methylamide]	< 1000	≤ 500	–	–	–
CNC(=O)c1c(-c2ccc(F)cc2)oc2cc(-c3c(C)noc3C)c(OCc3nccs3)cc12 [Example 410, 6-(3,5-Dimethyl-isoxazol-4-yl)-2-(4-fluoro-phenyl)-5-(thiazol-2-ylmethoxy)-benzofuran-3-carboxylic acid methylamide]	< 1000	≤ 500	–	–	–
CNC(=O)c1c(-c2ccc(F)cc2)oc2cc(N(C)S(C)(=O)=O)c(OCC(=O)Nc3nccs3)cc12 [Example 415, 2-(4-Fluoro-phenyl)-6-(methanesulfonyl-methyl-amino)-5-(thiazol-2-ylcarbamoylmethoxy)-benzofuran-3-carboxylic acid methylamide]	< 1000	≤ 500	–	–	–
CNC(=O)c1c(-c2ccc(F)cc2)oc2cc(N(C)S(C)(=O)=O)c(OCC(=O)Nc3nncs3)cc12 [Example 416, 2-(4-Fluoro-phenyl)-6-(methanesulfonyl-methyl-amino)-5-([1,3,4]thiadiazol-2-ylcarbamoylmethoxy)-benzofuran-3-carboxylic acid methylamide]	< 1000	≤ 500	–	–	–
CNC(=O)c1c(-c2ccc(F)cc2)oc2cc(N(C)S(C)(=O)=O)c(OCC(=O)Nc3nc(C)c(C)s3)cc12 [Example 417, 5-[(4,5-Dimethyl-thiazol-2-ylcarbamoyl)-methoxy]-2-(4-fluoro-phenyl)-6-(methanesulfonyl-methyl-amino)-benzofuran-3-carboxylic acid methylamide]	< 1000	≤ 500	–	–	–
CNC(=O)c1c(-c2ccc(F)cc2)oc2cc(NS(C)(=O)=O)c(C3CC3)cc12 [Example 418, 5-Cyclopropyl-2-(4-fluoro-phenyl)-6-methanesulfonylamino-benzofuran-3-carboxylic acid methylamide]	< 1000	≤ 500	–	–	–
CNC(=O)c1c(-c2ccc(F)cc2)oc2cc(-c3c(C)noc3C)c(OCCN3CCC(C#N)CC3)cc12 [Example 419, 5-[2-(4-Cyano-piperidin-1-yl)-ethoxy]-6-(3,5-dimethyl-isoxazol-4-yl)-2-(4-fluoro-phenyl)-benzofuran-3-carboxylic acid methylamide]	< 1000	≤ 500	–	–	–
CNC(=O)c1c(-c2ccc(F)cc2)oc2cc(NS(C)(=O)=O)c(-c3cccs3)cc12 [Example 420, 2-(4-Fluoro-phenyl)-6-methanesulfonylamino-5-thiophen-2-yl-benzofuran-3-carboxylic acid methylamide]	< 1000	≤ 500	–	–	–
CNC(=O)COc1cc2c(C(=O)NC)c(-c3ccc(F)cc3)oc2cc1N(C)S(C)(=O)=O [Example 421, 2-(4-Fluoro-phenyl)-6-(methanesulfonyl-methyl-amino)-5-methylcarbamoyl-methoxy-benzofuran-3-carboxylic acid methylamide]	–	≤ 500	< 1000	–	–
CNC(=O)c1c(-c2ccc(F)cc2)oc2cc(N(CC3(CO)CC3)S(C)(=O)=O)c(OCC3(CO)CC3)cc12 [Example 422, 2-(4-Fluoro-phenyl)-5-(1-hydroxymethyl-cyclopropylmethoxy)-6-[(1-hydroxymethyl-cyclopropylmethyl)-methanesulfonyl-amino]-benzofuran-3-carboxylic acid methylamide]	< 10000	500 to 5000	–	–	–
CCOc1cc2c(C(=O)NC)c(-c3ccc(F)cc3)oc2cc1N(CC)CC [Example 423, 6-Diethylamino-5-ethoxy-2-(4-fluoro-phenyl)-benzofuran-3-carboxylic acid methylamide]	< 1000	≤ 500	–	–	–
CNC(=O)c1c(-c2ccc(F)cc2)oc2cc(N(C)S(C)(=O)=O)c(OCC(N)=O)cc12 [Example 424, 5-Carbamoylmethoxy-2-(4-fluoro-phenyl)-6-(methanesulfonyl-methyl-amino)-benzofuran-3-carboxylic acid methylamide]	< 1000	≤ 500	–	–	–
CNC(=O)c1c(-c2ccc(F)cc2)oc2cc(N(C)S(C)(=O)=O)c(OCCn3nc(C)cc3C)cc12 [Example 425, 5-[2-(3,5-Dimethyl-pyrazol-1-yl)-ethoxy]-2-(4-fluoro-phenyl)-6-(methanesulfonyl-methyl-amino)-benzofuran-3-carboxylic acid methylamide]	< 1000	≤ 500	–	–	–
CNC(=O)c1c(-c2ccc(F)cc2)oc2cc(NS(C)(=O)=O)c(-c3ccco3)cc12 [Example 426, 2-(4-Fluoro-phenyl)-5-furan-2-yl-6-methanesulfonylamino-benzofuran-3-carboxylic acid methylamide]	< 1000	≤ 500	–	–	–
CNC(=O)c1c(-c2ccc(F)cc2)oc2cc(-c3c(C)noc3C)c(OCc3nnnn3C)cc12 [Example 427, 6-(3,5-Dimethyl-isoxazol-4-yl)-2-(4-fluoro-phenyl)-5-(1-methyl-1H-tetrazol-5-ylmethoxy)-benzofuran-3-carboxylic acid methylamide]	< 1000	≤ 500	–	–	–
CNC(=O)c1c(-c2ccc(F)cc2)oc2cc(-c3c(C)noc3C)c(OCC3CC3)cc12 [Example 428, 5-Cyclopropylmethoxy-6-(3,5-dimethyl-isoxazol-4-yl)-2-(4-fluoro-phenyl)-benzofuran-3-carboxylic acid methylamide]	< 1000	≤ 500	–	–	–
CNC(=O)c1c(-c2ccc(F)cc2)oc2cc(-c3c(C)noc3C)c(OCc3c(C)noc3C)cc12 [Example 429, 6-(3,5-Dimethyl-isoxazol-4-yl)-5-(3,5-dimethyl-isoxazol-4-ylmethoxy)-2-(4-fluoro-phenyl)-benzofuran-3-carboxylic acid methylamide]	< 1000	≤ 500	–	–	–
CNC(=O)c1c(-c2ccc(F)cc2)oc2ccc(OCc3cscn3)cc12 [Example 435, 2-(4-Fluoro-phenyl)-5-(thiazol-4-ylmethoxy)-benzofuran-3-carboxylic acid methylamide]	> 30000	500 to 5000	–	–	–
CNC(=O)c1c(-c2ccc(F)cc2)oc2cc(C(=O)CO)c(OC)cc12 [Example 436, 2-(4-Fluoro-phenyl)-6-(2-hydroxy-acetyl)-5-methoxy-benzofuran-3-carboxylic acid methylamide]	< 10000	≤ 500	–	–	–
CNC(=O)c1c(-c2ccc(F)cc2)oc2cc(N(C)S(C)(=O)=O)c(C3CC3)cc12 [Example 437, 5-Cyclopropyl-2-(4-fluoro-phenyl)-6-(methanesulfonyl-methyl-amino)-benzofuran-3-carboxylic acid methylamide]	–	–	–	< 1000	≤ 500
CNC(=O)c1c(-c2ccc(F)cc2)oc2cc(NS(C)(=O)=O)c(C3CCCO3)cc12 (stereo not drawn) [Example 441, 2-(4-Fluoro-phenyl)-6-methanesulfonylamino-5-(tetrahydro-furan-2-yl)-benzofuran-3-carboxylic acid methylamide]	–	–	–	< 1000	≤ 500
CNC(=O)c1c(-c2ccc(F)cc2)oc2cc(C3CCOC3)c(OC)cc12 (stereo not drawn) [Example 442, 2-(4-Fluoro-phenyl)-5-methoxy-6-(tetrahydro-furan-3-yl)-benzofuran-3-carboxylic acid methylamide]	–	–	–	< 1000	≤ 500
CCCOc1cc2c(C(=O)NC)c(-c3ccc(F)cc3)oc2cc1N(COC)S(C)(=O)=O [Example 443, 2-(4-Fluoro-phenyl)-6-(methanesulfonyl-methoxymethyl-amino)-5-propoxy-benzofuran-3-carboxylic acid methylamide]	–	–	–	< 1000	≤ 500
